According to patent US20140242609A1, “Diagnosis and treatment of kidney stones, methods and compositions therefor” (Washington University, priority 2013, published 2014):
“Also recorded” adds a separate entry of the source.

Legend:
[1] = tested on: pri-miR-9-2; test: pri-miR-9-2 transcript levels in TALH of treated mouse kidneys (real-time PCR); assay type: in vivo; conditions: 30 mg/kg BW−1; 2 hrs or 8 hrs
Text: (§1) Total RNA including microRNA was extracted using Trizol (Invitrogen). Cellular mRNA was reverse transcribed using the Superscript-III kit (Invitrogen), followed by real-time PCR amplification using SYBR Green PCR Master Mix (Bio-Rad) and Eppendorf Realplex2S system. The design of claudin-14 primers was described above. The design of pri-miRNA primers was according to Ma et al., (2010). Results were expressed as 2^−ΔCt values with ΔCT=Ctgene−Ctβ-actin.
(§2) To measure the transcriptional level for microRNA gene in vivo in the kidney, the inventors designed primers (see Methods; Table 2) to amplify the pri-miRNA molecule, the original transcript for microRNA gene that had not yet been subjected to any nuclear or cellular processing. Because both miR-9 and miR-374 had broader localization profiles along the nephron, the inventors isolated the TALH tubular cells for pri-miRNA analyses from the mouse kidney described elsewhere in this study. WT mice (strain: C57BL/6) were treated with NPS2143 or cinacalcet as described for claudin-14 analyses and assayed for pri-miRNA levels in isolated TALH cells at 2 hrs and 8 hrs respectively. […] NPS2143 and cinacalcet also profoundly regulated pri-miR-374. […]
(§3) Total RNA including microRNA was extracted using Trizol (Invitrogen). […] Results were expressed as 2^−ΔCt values with ΔCT=Ctgene−Ctβ-actin.

[2] = 1 hr renal clearance measurements (FITC-inulin), plasma and urine electrolytes; assay type: in vivo, mouse
Experimental: (§4) The method for performing renal clearance measurements in the mouse has been described by Hou et al., (2007; 2009). Mice were anesthetized by i.p. injection of Inactin (Sigma; 100 mg/kg). The jugular vein was catheterized for i.v. infusion of 0.9% saline at 2 μL/min, with 1% FITC-inulin included in the infusate. After an equilibration period of 60 min, renal clearance measurements were carried out for a 60 min period. Urine was collected under mineral oil, and 30 μL blood sample was taken at hourly intervals. Urine and plasma Ca^2+ and Mg^2+ concentrations were measured by atomic flame absorption spectrophotometer (PerkinElmer). Urine and plasma FITC-inulin levels were measured in 100 mM HEPES buffer (pH7.0) with fluorescence spectrophotometer (BioTek). The fractional excretion of electrolytes was calculated using the following equation FEion=V×Uion/(GFR×Pion), where GFR was calculated according to the clearance rate of FITC-inulin (GFR=V×Uinulin/Pinulin).
as §4, with “Hou, J.,” for “Hou”, “2007 and Hou, J., et al., 2009.” for “(2007; 2009).”, “(Sigma:” for “(Sigma;”, “Ca^++” for “Ca^2+”, “Mg^++” for “Mg^2+”, “(PerkinEhner).” for “(PerkinElmer).”

[3] = tested on: pri-miR-9-3; test: pri-miR-9-3 transcript levels in TALH of treated mouse kidneys (real-time PCR); assay type: in vivo; conditions: 30 mg/kg BW−1; 2 hrs or 8 hrs
Text: as §1, §2, §3

[4] = tested on: claudin-14 promoter; test: lacZ reporter of endogenous claudin-14 promoter activity in claudin-14+/lacZ mice; assay type: in vivo, mouse
Experimental: (§5) The inventors also sought for alternative mechanisms for claudin-14 gene regulation. Because the claudin-14 KO mouse was generated with a lacZ reporter gene replacing the last exon of claudin-14 gene (including the coding region and 3″-UTR) (Ben-Yosef et al., 2003), the expression of lacZ gene would provide a faithful measurement for endogenous claudin-14 promoter activity regardless of any microRNA based regulation. The claudin-14^+/lacZ mice were treated with cinacalcet or NPS2143 as described for WT mice.
as §5, with “explored” for “also sought for”, “3′-UTR; Ben-Yosef, T.,” for “3″-UTR) (Ben-Yosef”, “2003)” for “2003),”

[5] = WT + CsA (25 mg/kg BW−1 per day, 6 days), 2 hr, Veh = CsA alone
[6] = WT, 2 hr, single dose 30 mg/kg BW−1
[7] = WT, 2 hr, single dose 30 mg/kg BW−1, 30 mg/kg
[8] = WT, 2 hr, single dose 30 mg/kg BW−1, listed as NPS, 30 mg/kg
[9] = WT, 8 hr, single dose 30 mg/kg BW−1
[10] = claudin-14 KO, 2 hr, single dose 30 mg/kg BW−1
[11] = WT, 2 hr, single dose 30 mg/kg BW−1, listed as Cina, 30 mg/kg

SMILES	pri-miR-9-2 level, change [1]	ECa [2, 5] [ug/hr · g]	FECa (fractional excretion of Ca++) [2, 5] [%]	FEMg (fractional excretion of Mg++) [2, 5] [%]	PCa (plasma Ca++ concentration) [2, 5] [mg/dL]	PMg (plasma Mg++ concentration) [2, 5] [mg/dL]	ECa [2, 6] [ug/hr · g]	EMg [2, 6] [ug/hr · g]	FEMg (fractional excretion of Mg++) [2, 6] [%]	PMg (plasma Mg++ concentration) [2, 6] [mg/dL]	FECa (fractional excretion of Ca++) [2, 7] [%]	PCa (plasma Ca++ concentration) [2, 7] [mg/dL]	ECa [2, 9] [ug/hr · g]	EMg [2, 9] [ug/hr · g]	FECa (fractional excretion of Ca++) [2, 9] [%]	FEMg (fractional excretion of Mg++) [2, 9] [%]	PCa (plasma Ca++ concentration) [2, 9] [mg/dL]	PMg (plasma Mg++ concentration) [2, 9] [mg/dL]	ECa [2, 10] [ug/hr · g]	EMg [2, 10] [ug/hr · g]	further results
CC(C)(Cc1ccc2ccccc2c1)NC[C@@H](O)COc1cccc(Cl)c1C#N [NPS2143]	Neither pri-miR-9-2 (FIG. 12B) nor pri-miR-9-3 level (FIG. 12C) was significantly altered; also recorded: Neither pri-miR-9-2 (FIG. 29B) nor pri-miR-9-3 level (FIG. 29C) was significantly altered	0.38 ± 0.02	0.95 ± 0.14	11.96 ± 2.27	10.50 ± 0.18	1.67 ± 0.02	0.06 ± 0.01	1.04 ± 0.06	7.59 ± 0.32	2.74 ± 0.15	0.09±0.01	11.15 ± 0.21	0.25 ± 0.04	1.41 ± 0.18	0.58 ± 0.11	14.88 ± 2.63	10.63 ± 0.43	2.37 ± 0.09	0.25 ± 0.09	1.02 ± 0.12	EMg [2, 5]: 0.80 ± 0.19 ug/hr · g; FECa (fractional excretion of Ca++) [2, 8]: 0.09 ± 0.01 %; PCa (plasma Ca++ concentration) [2, 8]: 11.15 ± 0.21 mg/dL; FECa (fractional excretion of Ca++) [2, 10]: 0.74 ± 0.26%; FEMg (fractional excretion of Mg++) [2, 10]: 10.71 ± 2.16%; PCa (plasma Ca++ concentration) [2, 10]: 10.22 ± 0.30 mg/dL; PMg (plasma Mg++ concentration) [2, 10]: 2.88 ± 0.12 mg/dL; pri-miR-9-3 level, change [3]: Neither pri-miR-9-2 (FIG. 12B) nor pri-miR-9-3 level (FIG. 12C) was significantly altered; also recorded: Neither pri-miR-9-2 (FIG. 29B) nor pri-miR-9-3 level (FIG. 29C) was significantly altered
O=C(CCCCCCC(=O)Nc1ccccc1)NO [SAHA, Suberanilohydroxamic acid]																					lacZ mRNA levels ([4]; 25 mg/kg BW−1, 4 hrs): no significant change
C[C@@H](NCCCc1cccc(C(F)(F)F)c1)c1cccc2ccccc12 [cinacalcet]	Neither pri-miR-9-2 (FIG. 12B) nor pri-miR-9-3 level (FIG. 12C) was significantly altered; also recorded: Neither pri-miR-9-2 (FIG. 29B) nor pri-miR-9-3 level (FIG. 29C) was significantly altered	0.79 ± 0.07	1.93 ± 0.20	14.47 ± 1.13	8.09 ± 0.32	1.58 ± 0.04	1.33 ± 0.13	2.32 ± 0.26	28.14 ± 2.93	1.96 ± 0.04	3.82±0.52	8.44 ± 0.27	0.22 ± 0.02	1.25 ± 0.09	0.88 ± 0.14	18.80 ± 1.48	9.58 ± 0.21	2.44 ± 0.16	0.31 ± 0.03	1.12 ± 0.03	lacZ mRNA levels ([4]; claudin-14+/lacZ mouse kidneys, single-dose 30 mg/kg BW−1, 2 hrs): no change; β-galactosidase activity ([4]; isolated TALH cells of claudin-14+/lacZ mice, single-dose 30 mg/kg BW−1, 2 hrs): no change; FECa (fractional excretion of Ca++) [2, 11]: 3.82 ± 0.52 %; PCa (plasma Ca++ concentration) [2, 11]: 8.44 ± 0.27 mg/dL; FECa (fractional excretion of Ca++) [2, 10]: 1.08 ± 0.26%; FEMg (fractional excretion of Mg++) [2, 10]: 12.35 ± 2.21%; PCa (plasma Ca++ concentration) [2, 10]: 8.47 ± 0.09 mg/dL; PMg (plasma Mg++ concentration) [2, 10]: 2.64 ± 0.10 mg/dL; cinacalcet induced hypercalciuria, level higher than vehicle ([2]; cyclosporine-A pre-treated animals, 2 hrs): 1.93 fold; pri-miR-9-3 level, change [3]: Neither pri-miR-9-2 (FIG. 12B) nor pri-miR-9-3 level (FIG. 12C) was significantly altered; also recorded: Neither pri-miR-9-2 (FIG. 29B) nor pri-miR-9-3 level (FIG. 29C) was significantly altered
